Assay results published in patent US8987486B2, “Trans-2-decenoic acid derivative and pharmaceutical agent containing the same” (Nagoya Industrial Science Research Institute, priority 2010, dated 2015).

Legend:
MAP kinase = test: Activation (phosphorylation) of MAP kinase by Western immunoblotting in cultured cerebral cortex nerve cells; type: cell-based, rat; settings: for Ratio of pMAPK to MAPK: Test Example 6, relative to control (0 μg/mL = 1.0)
Description: With regard to the compound 1 ((E)-2-(dimethylamino)-ethyl dec-2-enoate), activation of MAP kinase was measured as follows by a Western immunoblotting.
Nerve cells were dispersed from cerebral cortex of a fetal rat of 17 days age and said nerve cells were cultured for one day in a Dulbecco-modified Eagle medium (DMEM) containing 5% fetal bovine serum. The culture medium was exchanged with a serum-free medium (B27 supplement-added Neurobasal; Invitrogen) and the nerve cells were cultured at the density of 20,000 to 40,000 cells per cm^2 in a culture dish coated with polyornithine.
After three days, the compound 1 was added and the culture was continued for 30 minutes. After that, the cells were recovered on ice using a solution containing a phosphatase inhibitor where Tris-HCl buffer was a base. Protein concentration of the resulting cell extract was quantified using a BCA Protein Assay Kit (Takara Bio KK) and a certine amount of protein (3 μg for the measurement of MAP kinase and 5 μg for the measurement of phosphorylated MAP kinase) was subjected to polyacrylamide gel electrophoresis. The protein was transcribed from the gel after the electrophoresis to a PVDF membrane and a Western immunoblotting was carried out using each of an anti-MAP kinase antibody (Cell Signaling Technology) and an anti-phosphorylated MAP kinase antibody (Cell Signaling Technology) of the primary antibody.
After that, the reaction with an alkaline phosphatase-labeled anti-rabbit IgG antibody (Promega) of the secondary antibody was carried out so that the enzymatic activity was colorized whereupon the MAP kinase and the phosphorylated MAP kinase were measured.
Incidentally, the compound 1 was adjusted to the concentrations of 10 μg/ml, 30 μg/ml, 100 μg/ml and 300 μg/ml by dissolving in 0.1% DMSO. With regard to the control, 0.1% DMSO was added.
Intensity of the concentration of the above-obtained band of the gel subjected to electrophoresis was calculated and quantified using Image J (K. K. Bioarts). The numerical value for the MAP kinase using the compound 1 was divided by the numerical value for the MAP kinase of the control and, further, the numerical value for the phosphorylated MAP kinase using the compound 1 was divided by the numerical value for the phosphorylated MAP kinase of the control whereupon the ratio of the MAP kinase using the compound 1 to the control and the ratio of the phosphorylated kinase using the compound 1 to the control were determined.
After that, the resulting ratio of the phosphorylated MAP kinase to the control was divided by the resulting ratio of the MAP kinase to the control to determine the ratio of the phosphorylated MAP kinase to the MAP kinase (cf. Table 5). In Table 5, “MAPK” means a MAP kinase and “pMAPK” means a phosphorylated MAP kinase. “10”, “30”, “100” and “300” in Table 5 show the examples where 10 μg/ml, 30 μg/ml, 100 μg/ml and 300 μg/ml of the compound 1 were added.
MAP kinase and phosphorylated MAP kinase were measured for the compound 6 ((E)-2-(diethylamino)ethyl dec-2-enoate) and the compound 13 ((E)-2-(2-(diethylamino)ethoxy)ethyl dec-2-enoate) by the same method as in Test Example 1.
Each of the compounds 6 and 13 was dissolved in 0.1% DMSO to adjust to the concentration of 250 μg/ml. With regard to the control, 0.1% DMSO was added. With regard to the concentration of the resulting band of the gel subjected to electrophoresis, its intensity was calculated by the same method as in Test Example 1 using Image J (K. K. Bioarts) and the ratio of the phosphorylated MAP kinase to the control was divided by the resulting ratio of the MAP kinase to the control whereupon the ratio of the phosphorylated MAP kinase to the MAP kinase was determined (cf. Table 6).
With regard to the compound of the present invention, its activation for MAP kinase was measured by the same manner as in Test Example 1.
Each compound was dissolved in 0.1% DMSO to adjust to the concentrations of 30 μg/ml, 60 μg/ml, 125 μg/ml and 250 μg/ml. […]

[1] = test system: paclitaxel-induced peripheral nerve disorder rats; test: von Frey test in paclitaxel-induced peripheral nerve disorder rats; type: in vivo; settings: Rattus norvegicus, ip; single intraperitoneal dose of 300 μ/kg; higher of the thresholds after 1 hour and 5 hours; normal threshold 15; read-out: Recovery rate of 50% reaction threshold value (%)
Description: The effect of the compound of the present invention was tested for a peripheral nerve disorder which is a side effect induced by the administration of paclitaxel (an anti-cancer agent) such as hyperesthesia including allodynia (severe pain induced by such tactile stimuli which usually cause no pain). The compound of the present invention was intraperitoneally administered to rats as a test drug to conduct a von Frey test.
Male SD rats of six weeks age (one group comprising six rats) were used as experimental animals and paclitaxel (2 mg/kg) was intraperitoneally administered every other day for four times in total to prepare paclitaxel-induced peripheral nerve disorder rats. During 18 and 25 days or during 20 to 27 days after initiation of paclitaxel administration, the test drug was intraperitoneally administered in a single dose of […] and the following von Frey test was conducted.
The rats of the above (1) were placed in a transparent acrylic cage with a wire-meshed floor and habituated for about three minutes and the 50% reaction threshold values to the mechanical stimulus of right hind limb were measured before administration of the test drug and after 1, 5 and 24 hours from initiation of the administration.
The measurement was conducted using von Frey filaments (manufactured by North Coast Medical Inc.) in accordance with the methods of Chaplan, et al. (Journal of Neuroscience Methods, vol. 53, no. 1, pages 55 to 63, 1994) and Dixon, et al. (Annual Review of Pharmacology and Toxicology, vol. 20, pages 441 to 462, 1980). […] The case where the rat escaped at the instance of removing the filament was also called positive. When the positive reaction was noted, stimulus was conducted similarly using a filament of one rank weaker while, when no reaction was noted, stimulus was conducted similarly using a filament of one rank stronger and the point when the reaction changed from negative to positive or from positive to negative was called the first two reactions. After that, stimulus was conducted for continuous four times by the same up-down method. A 50% reaction threshold value to the mechanical stimulus was measured using the reaction to the six stimuli in total and then (mean value)±(standard error) for each group was calculated. Incidentally, when stimulus reached by that of 15.0 g without positive reaction or, when positive reaction continued to 0.4 g, then 15.0 g or 0.25 g was adopted as each threshold value, respectively. With regard to the higher 50% reaction threshold value between the 50% threshold values after 1 hour and 5 hours from administration of a test drug, a recovery rate (%) of the 50% reaction threshold value was calculated by the following expression in which 15 was adopted as the normal threshold value. Recovery rate (%) of 50% reaction threshold value=[(50% reaction threshold value after 1 hour or 5 hours from administration of test drug)−(50% reaction threshold value before administration of test drug)]/[(Normal threshold value)−(50% reaction threshold value before administration of test drug)]

PC12 cells = test: Evaluation using PC12 cells; immunostaining method for MAPK phosphorylation; type: cell-based; settings: 30 minutes
Description: PC12 cells were stimulated using the compound of the present invention and the phosphorylation of MAPK was evaluated by means of immunostaining of the cells. The specific operation procedure is as follows.
A cover glass was placed on a 24-well plate followed by coating with poly-L-lysine. PC12 cells were seeded in a cell density of 50,000 cells/well. (The amount of the medium was 400 μL) On the first day after seeding the cells, the medium was exchanged to DMEM containing 1% fetal bovine serum (FBS) and 0.06% L-glutamine.
The compound which was previously diluted with DMSO was dissolved in 100 μl of medium. After 12 to 16 hours from the medium exchange, 100 μl out of 400 μl of the medium was removed from each well and, in place of that, 100 μl of a medium containing the compound was added.
After 30 minutes from the addition, fixation was conducted using 4% paraformaldehyde (PFA) for 10 minutes. The fixed cells were washed with a Tris-buffered saline (TBS) and a TBS containing 0.3% Triton X was added thereto followed by incubating at 37° C. for 30 minutes. This was washed with a TBS and blocked with a TBS containing 3% skim milk for 30 minutes (at room temperature).
This was washed with a TBS for one time and a primary antibody (anti-phospho-p42/44 MAPK antibody; cell signalings; #9102 being diluted with TBS to an extent of 1,000-fold) was added thereto followed by subjecting to the reaction at 4° C. for one night. The primary antibody was removed and washed with a TBS for three times. After that, the secondary antibody (Alexa 488 goat anti-rabbit antibody; Invitrogen: being diluted to an extent of 1,000-fold using a TBS containing 1% Block Ace) was added thereto and the reaction was conducted at room temperature for 3 hours. The secondary antibody was removed and, after washing with a TBS, fixation was conducted with 4% PFA for 1 hour.
This was washed with a TBS, Hoechst (diluted with a TBS to an extent of 2000-fold) was added thereto and nuclear staining was conducted. This was washed and mounted.
Taking the photographic pictures and counting the positive cells were conducted as follows. An all-in-one microscope (manufactured by Keyence) was used, exposing time for pMAPK (green) was made 1/2.8 s, the place was appropriately decided in a Hoechst-stained image and the pictures were taken. Four pictures per one glass sheet were taken.
Photoshop (Adobe) was used and the cells having above a certain luminance were judged to be positive. All cells were labeled using Hoechst 33342 manufactured by Invitrogen and the rate of pMAPK-positive cells in Hoechst-positive cells was calculated. (cf. Table 7)

Structure (SMILES): CCCCCCC/C=C/C(=O)SCCN(CC)CC [Compound 56, (E)-S-2-(diethylamino)ethyl dec-2-enethioate]
- Ratio of pMAPK to MAPK (MAP kinase; 60 μg/mL): 5.0
- Ratio of pMAPK to MAPK (MAP kinase; 125 μg/mL): 7.4
- Ratio of pMAPK to MAPK (MAP kinase; 250 μg/mL): 5.7
- inhibition in vivo at 0.3 mg/kg [1]: 60.5%

Structure (SMILES): CCCCCCC/C=C/C(=O)N(CCN(C)C)CCN(C)C [Compound 45, (E)-N,N-bis(2-(dimethylamino)ethyl) dec-2-enamide]
- Rate of pMAPK-positive cells (%) (PC12 cells; 62.5 μg/mL): 34%
- Rate of pMAPK-positive cells (%) (PC12 cells; 125 μg/mL): 67%
- Rate of pMAPK-positive cells (%) (PC12 cells; 250 μg/mL): 50%
- inhibition in vivo at 0.3 mg/kg [1]: 37%

Structure (SMILES): CCCCCCC/C=C/C(=O)OCCCN(C)C [Compound 2, (E)-3-(dimethylamino)propyl dec-2-enoate]
- Rate of pMAPK-positive cells (%) (PC12 cells; 62.5 μg/mL): 0%
- Rate of pMAPK-positive cells (%) (PC12 cells; 125 μg/mL): 19%
- Rate of pMAPK-positive cells (%) (PC12 cells; 250 μg/mL): 71%
- Rate of pMAPK-positive cells (%) (PC12 cells; 500 μg/mL): 53%
- inhibition in vivo at 0.3 mg/kg [1]: 58.1%

Structure (SMILES): CCCCCCC/C=C/C(=O)N(CC)CCN(C)C [Compound 43, (E)-N-(2-(dimethylamino)ethyl)-N-ethyl dec-2-enamide]
- Rate of pMAPK-positive cells (%) (PC12 cells; 62.5 μg/mL): 20%
- Rate of pMAPK-positive cells (%) (PC12 cells; 125 μg/mL): 26%
- Rate of pMAPK-positive cells (%) (PC12 cells; 250 μg/mL): 49%
- inhibition in vivo at 0.3 mg/kg [1]: 40.3%

Structure (SMILES): CCCCCCC/C=C/C(=O)N(CC)CC [Compound 31, (E)-N,N-diethyl dec-2-enamide]
- Rate of pMAPK-positive cells (%) (PC12 cells; 62.5 μg/mL): 79%
- Rate of pMAPK-positive cells (%) (PC12 cells; 125 μg/mL): 95%
- Rate of pMAPK-positive cells (%) (PC12 cells; 250 μg/mL): 98%
- Rate of pMAPK-positive cells (%) (PC12 cells; 500 μg/mL): 96%
- inhibition in vivo at 0.3 mg/kg [1]: 43.1%

Structure (SMILES): CCCCCCC/C=C/C(=O)OCCOCCN(CC)CC [Compound 13, (E)-2-(2-(diethylamino)ethoxy)ethyl dec-2-enoate]
- Ratio of pMAPK to MAPK (MAP kinase; 30 μg/mL): 2.6
- Ratio of pMAPK to MAPK (MAP kinase; 60 μg/mL): 3.1
- Ratio of pMAPK to MAPK (MAP kinase; 125 μg/mL): 1.3
- pMAPK/MAPK/Control (MAP kinase; 250 μg/ml, Test Example 2, control = 1.00): 1.46
- Rate of pMAPK-positive cells (%) (PC12 cells; 62.5 μg/mL): 35%
- Rate of pMAPK-positive cells (%) (PC12 cells; 125 μg/mL): 35%
- Rate of pMAPK-positive cells (%) (PC12 cells; 250 μg/mL): 52%

Structure (SMILES): CCCCCCC/C=C/C(=O)N(CCCN(C)C)CCCN(C)C [Compound 47, (E)-N,N-bis(3-(dimethylamino)propyl) dec-2-enamide]
- Rate of pMAPK-positive cells (%) (PC12 cells; 62.5 μg/mL): 17%
- Rate of pMAPK-positive cells (%) (PC12 cells; 125 μg/mL): 33%
- Rate of pMAPK-positive cells (%) (PC12 cells; 250 μg/mL): 23%
- inhibition in vivo at 0.3 mg/kg [1]: 37.4%

Structure (SMILES): CCCCCCC/C=C/C(=O)OCCCCN(C)C [Compound 4, (E)-4-(dimethylamino)butyl dec-2-enoate]
- Ratio of pMAPK to MAPK (MAP kinase; 30 μg/mL): 2.2
- Ratio of pMAPK to MAPK (MAP kinase; 60 μg/mL): 3.2
- Ratio of pMAPK to MAPK (MAP kinase; 125 μg/mL): 20.6
- Rate of pMAPK-positive cells (%) (PC12 cells; 62.5 μg/mL): 12%
- Rate of pMAPK-positive cells (%) (PC12 cells; 125 μg/mL): 27%
- Rate of pMAPK-positive cells (%) (PC12 cells; 250 μg/mL): 64%
- Rate of pMAPK-positive cells (%) (PC12 cells; 500 μg/mL): 81%

Structure (SMILES): CCCCCCC/C=C/C(=O)N(CCN(CC)CC)CCN(CC)CC [Compound 46, (E)-N,N-bis(2-(diethylamino)ethyl) dec-2-enamide]
- Rate of pMAPK-positive cells (%) (PC12 cells; 62.5 μg/mL): 22%
- Rate of pMAPK-positive cells (%) (PC12 cells; 125 μg/mL): 13%
- Rate of pMAPK-positive cells (%) (PC12 cells; 250 μg/mL): 32%
- inhibition in vivo at 0.3 mg/kg [1]: 19.9%
